Usually IC50 stands for the midpoint of a concentration-inhibition curve. A high value points to a need for much substance. The AUC is concentration integrated over time. By Vd is commonly meant the apparent volume that relates the amount in the body to the concentration in plasma or blood. Higher therefore signals extensive tissue distribution. As usually defined, the half-life is the time needed for the level to fall by half in the phase considered. Low readings indicate rapid decline, high ones slow decline. As a reminder, the Cmax is the peak of the concentration-time curve. What is called Tmax is the time from dosing to the highest level. In general, bioavailability refers to dose-corrected exposure relative to a reference, in per cent. Low values mean little systemic uptake, high ones much systemic uptake.

Experimental findings from paper PMC7617456, “Cryptosporidium lysyl-tRNA synthetase inhibitors define the interplay between solubility and permeability required to achieve efficacy” (Science translational medicine, 2024) are described below.

The target of one data set is CYP450 1A2 (Homo sapiens, UniProt P05177). The data set is described as follows: CYP450 inhibition 1A2. The class given is in vitro ADME. As to the method:
CYP450 inhibition (Dundee)
As previously described.(31)
DDD489 and DDD508 were evaluated for their ability to induce reverse mutations both in the presence and absence of S9 mix at the histidine locus in the genome of four strains of Salmonella typhimurium (TA98, TA100, TA1535, and TA97a) and at the tryptophan locus in the genome of Escherichia coli WP2 uvrA in a mini-Ames study conducted at WuXi App Tec […]
hERG inhibition (WuXi App Tec)
DDD489 and DDD508 were evaluated for their effects on cloned hERG potassium channels stably expressed in Chinese Hamster Ovary (CHO) cells using manual patch-clamp technique in a hERG inhibition assay conducted at WuXi App Tec (Suzhou).
Mitochondrial toxicity (Cyprotex)
DDD489 and DDD508 were evaluated for their effects on mitochondrial function in a functional mitochondrial toxicity assay using Seahorse XFe96 flux analyser conducted at […]
44 screen safety panel (Eurofins)
DDD489 was evaluated for off-target effects in a SafetyScreen44 panel at Eurofins Cerep.
All regulated procedures, at the University of Dundee, on living animals were carried out under the authority of a project license issued by the Home Office under the Animals (Scientific Procedures) Act 1986, as amended in 2012 (and in compliance with EU Directive EU/2010/63). […]

A short description of data set [1]: Hepatocyte intrinsic clearance, mouse. The class given is in vitro ADME. The settings on record: mouse hepatocytes.
A short description of the next data set: Mouse pharmacokinetics. The note with it: for AUC / Vd / half-life / Cmax / Tmax / bioavailability: female, BALB/C, whole blood; for AUC / Vd / half-life / Cmax / Tmax / bioavailability / Clb: mouse; for CLB: mouse IV 3 mg/kg, clearance in blood; for Clb: percent of liver blood flow; for mean free (unbound) drug concentration relative to EC90: uninfected mice, 10 mg/kg oral single dose. The method, then:
Uninfected mice were administered a single oral (10 mg/kg) dose of either DDD489 or DDD508 using the same formulation and dose concentration as for the efficacy study. Blood samples were collected at various time points after drug administration (15, 30, 60, 120, 180, 240, and 480 minutes) and analyzed to produce a concentration-time plot of unbound drug concentration (Fig. 3). […]
Mouse pharmacokinetics (Dundee)
As previously described.(27)
Test compound was dosed as a bolus solution intravenously (IV) at 3mg/kg (dose volume: 5 mL/kg; dose vehicle: 10% DMSO; 40% PEG 400; 50% Milli-Q water) or dosed orally (PO) by gavage as a suspension at 10mg/kg (dose volume: 10 mL/kg; dose vehicle: 1% CMC to female BALB/C mice (n = 3/dose route). Blood samples were taken from each mouse at 5, 15, 30 min, 1, 2, 4, 6, 8 h mixed with nine volumes of Milli-Q water and stored frozen until UPLC/MS/MS analysis. Pharmacokinetic parameters were derived from the blood concentration-time curve using PK solutions software v2.0 (Summit Research Services, USA).

A further data set concerns wild type C. parvum. The data set is described as follows: Neonatal calf efficacy model. The note with it: for calves receiving treatment that shed Cryptosporidium after day 16 PI: 15 mg/kg BID 7 days, n=7; for Cryptosporidium shedding: 15 mg/kg BID oral 7 days from day 1 PI, to day 16 PI; for fecal scores: 15 mg/kg BID, 0 = normal, 3 = severe, treatment period. It counts as in vivo. As to the method:
Calves were enrolled at birth and challenged with wild type C. parvum oocysts (Fig. 5A). DDD489 and DDD508 were administered orally at 15 mg/kg BID for 7 days, beginning on day 1 PI. Blood was sampled and mean free plasma concentration was determined (Fig. S10). Fecal samples were collected from individual animals and parasite shedding was quantified (oocyst/g) by microscopy and quantitative PCR. Fecal samples were collected daily until day 21 PI to monitor for parasite recrudescence. To determine the impact of our late lead compounds on reducing symptoms of cryptosporidiosis, several clinical observations were scored throughout the study.
Calves (Holstein Friesian, British Blue Cross, Limousin Cross, or Aberdeen Angus Cross) were born at commercial dairy farms, provided a colostrum feed, and transported to Moredun Scientific. Calves were enrolled in the study if >30 kg at birth and in good health. Enrolment was staggered due to timing of births.
Calves were assigned to control or treatment groups (7 calves per group) and housed in separate barns (within each barn calves were housed in adjacent, individual pens). Male calves were used in the DDD489 study, and both male and female calves were used in the DDD508 study (control group: 3 females/4 males; treatment group: 2 females/5 males). Calves were challenged on day 1 post birth with 5x10^5 C. parvum oocysts by oral gavage (Sterling Labs for DDD489; Waterborne Inc. for DDD508).
Starting day 1 PI, vehicle (in 0.5% HPMC, 0.4% Tween 80, 0.5% Benzyl alcohol in sterile water) or treatment (DDD489 or DDD508) were administered by oral gavage twice daily immediately prior to milk feeds, and at least 8 hours apart (± 30 minutes). Vehicle was delivered at a set volume (22.6 ml per occasion) and test compound at 15 mg/kg (maximum volume of 20 ml per occasion; prepared in vehicle). Blood samples were collected from all animals prior to morning treatment on Day 1, then 5 (± 2) minutes, 15 (± 2) minutes, 30 (± 5) minutes, 1, 2, 4, 8 and 24 hours (± 10 minutes) post first daily dose. This sample schedule was repeated on Day 7 for the same animals. Blood samples were processed to plasma. Weight was measured and clinical observations recorded as indicated. Fecal samples were collected daily throughout the study. […]
was limited to staff involved in the study, and separate PPE was dedicated for use with each […]
Specified staff were involved in preparing the vehicle and treatment material and were not involved in its administration. These staff were not involved in taking and recording clinical observations or collecting samples. Staff that administered the vehicle and treatment materials were blinded to the material identity. If staff involved in administration of materials or sample collection became “unblinded” at any point in the study, they were immediately removed from […]
Quantification of Cryptosporidium shedding from calf samples (Moredun Scientific and […]
Oocyst per gram from calf fecal samples was determined by microscopy (performed at MRI) and by qPCR (Pawlowic Lab at the University of Dundee). For microscopy 0.1 g of fecal material was resuspended in 10 ml PBS. 100 microliters of diluted fecal material was incubated with 15 microliters Cryptosporidium FITC Stain (CellLabs) and incubated at 37 °C for 15 minutes. Samples were then mounted on a grided slide and counted using a fluorescent microscope. For qPCR, fecal samples were continuously stored in 4°C and transported to the University of Dundee. DNA was extracted from 100mg of fecal material (unless otherwise noted) using the Zymo Quick-DNA Fecal/Soil Microbe Miniprep Kit (Cambridge Bioscience, catalog #D6010). Once material was suspended in Bashing Bead Buffer we modified the protocol slightly by adding 5 freeze/thaw cycles.(32) DNA was stored in 4°C to await qPCR.
For the standard curve, known amounts of wild-type oocysts were added to 100 mg of uninfected murine fecal sample and DNA was extracted using the protocol detailed above. We […]

Chain of CYP450 1A2 (P05177 whole entry): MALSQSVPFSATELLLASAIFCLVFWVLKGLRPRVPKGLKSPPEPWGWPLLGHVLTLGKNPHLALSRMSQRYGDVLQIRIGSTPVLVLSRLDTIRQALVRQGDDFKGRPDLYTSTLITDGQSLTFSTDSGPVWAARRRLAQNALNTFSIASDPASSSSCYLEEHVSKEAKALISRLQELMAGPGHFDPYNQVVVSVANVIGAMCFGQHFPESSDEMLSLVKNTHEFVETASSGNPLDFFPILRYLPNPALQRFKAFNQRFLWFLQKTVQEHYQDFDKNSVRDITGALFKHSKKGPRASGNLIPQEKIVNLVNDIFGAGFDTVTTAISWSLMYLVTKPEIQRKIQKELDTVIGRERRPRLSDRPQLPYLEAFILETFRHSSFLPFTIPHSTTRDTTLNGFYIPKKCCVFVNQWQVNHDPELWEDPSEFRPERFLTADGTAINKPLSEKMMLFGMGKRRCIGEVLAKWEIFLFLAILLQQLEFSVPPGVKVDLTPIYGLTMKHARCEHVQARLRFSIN

Consider `Nc1nc2c(c(C(F)(F)F)n1)C(=O)N(CC1CCCC(C(F)(F)F)C1)C2` (stereo not drawn) [DDD489], for which, at CYP450 1A2, the IC50 worked out at 40 µM. The “Heps CLi (m)” value in data set [1] was 10 mL/min/g. In addition, in the data set “Mouse pharmacokinetics” (iv, 3 mg/kg), the AUC was 2280 ng·h/mL, the Vd is 2.8 L/kg and the half-life was 90 min. For the same compound, in “Mouse pharmacokinetics” (po, 10 mg/kg), the AUC is 517 ng·h/mL, the Cmax turned out to be 200 ng/mL, the Tmax stood at 60 min and the bioavailability came out at 7%. In the data set “Mouse pharmacokinetics”, the CLB was 22 mL/min/kg, the Clb is reported as 17 % LBF and the “mean free (unbound) drug concentration relative to EC90” value is reported as “remained below the EC90”. Moreover, in the data set with wild type C. parvum, the “calves receiving treatment that shed Cryptosporidium after day 16 PI” value was 3/7, the Cryptosporidium shedding result is recorded as “did not shed any detectable amount of Cryptosporidium” and the fecal scores entry is listed as “normal to mild range”.

As to `O=C(NCC1(O)CCCCC1)c1cc(=O)c2cc(O)ccc2o1` [DDD508], on CYP450 1A2, the IC50 is > 100 µM. For the same compound, the “Heps CLi (m)” value in data set [1] is reported as 3.7 mL/min/g. In “Mouse pharmacokinetics” (iv, 3 mg/kg), the AUC is 1480 ng·h/mL, the Vd turned out to be 1.8 L/kg and the half-life is 36 min. For the same compound, in the data set “Mouse pharmacokinetics” (po, 10 mg/kg), the AUC is 267 ng·h/mL, the concentration peaked (Cmax) at 200 ng/mL, the Tmax came to 15 min and the bioavailability came to 6%. Further, in the data set “Mouse pharmacokinetics”, the CLB was determined as 34 mL/min/kg, the Clb is given as 27 % LBF and the “mean free (unbound) drug concentration relative to EC90” value was “remained below the EC90”. Further, in the data set on wild type C. parvum, the “calves receiving treatment that shed Cryptosporidium after day 16 PI” value was 4/7, the Cryptosporidium shedding result is recorded as “did not shed any detectable amount of Cryptosporidium” and the fecal scores entry is listed as “normal to mild range”.
